Measurements from ChEMBL document CHEMBL4673218, “Kojyl cinnamate esters are peroxisome proliferator-activated receptor α/γ dual agonists” (Bioorg Med Chem, 2018).
Calls of active or inactive are those of the source. The rule behind the calls is not given here.

System: NHEK
Assay: Inhibition of UVB-induced PGE2 level in human NHEK cells at 10 uM incubated for 24 hrs by ELISA
Type: functional, cell-based

SMILES: COc1ccc(OC)c(/C=C/C(=O)OCc2cc(=O)c(O)co2)c1
- inhibition: Active
